# Tests used:
# Assay in all cases: relative viability (nuclei count vs DMSO), 5 days (fraction); higher = more cells survive
# [1] = compound: CCOC(=O)CCNc1cc(N2CCc3ccccc3CC2)nc(-c2ccccn2)n1 [GSK-J4] + CC(=O)Nc1cccc(-n2c(=O)n(C3CC3)c(=O)c3c(Nc4ccc(I)cc4F)n(C)c(=O)c(C)c32)c1 [Trametinib] (partner 0.02 µM)
# Procedure, shortened: (§1)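 Relative viability is defined as nuclei in treated wells over nuclei in vehicle wells. Duplicate plates were run and medians reported. Lung cancer cell lines in 1536-well plates were dosed by pin tool one day after seeding, with one drug or with a fixed anchor-drug dose plus five library-drug doses (not always all listed) in √10 steps, and nuclei were counted after 5 days.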
# [2] = compound: CCOC(=O)CCNc1cc(N2CCc3ccccc3CC2)nc(-c2ccccn2)n1 [GSK-J4] + CC(=O)c1c(C)c2cnc(Nc3ccc(N4CCNCC4)cn3)nc2n(C2CCCC2)c1=O [Palbociclib] (partner 0.5 µM)
# Procedure, shortened: as §1
# [3] = compound: CCOC(=O)CCNc1cc(N2CCc3ccccc3CC2)nc(-c2ccccn2)n1 [GSK-J4] + CC1(C)CCC(c2ccc(Cl)cc2)=C(CN2CCN(c3ccc(C(=O)NS(=O)(=O)c4ccc(N[C@H](CCN5CCOCC5)CSc5ccccc5)c(S(=O)(=O)C(F)(F)F)c4)cc3)CC2)C1 [Navitoclax] (partner 0.5 µM)
# Procedure, shortened: as §1
# [4] = compound: CCOC(=O)CCNc1cc(N2CCc3ccccc3CC2)nc(-c2ccccn2)n1 [GSK-J4] + C[C@]1(O)C[C@@H](c2nc(-c3ccc4ccc(-c5ccccc5)nc4c3)c3c(N)nccn32)C1 [Linsitinib] (partner 1 µM)
# Procedure, shortened: as §1
Cell Line,relative viability ([1]; first compound 0.5 µM),relative viability ([1]; first compound 1.581 µM),relative viability ([1]; first compound 15.81 µM),relative viability ([1]; first compound 50 µM),relative viability ([2]; first compound 0.5 µM),relative viability ([2]; first compound 1.581 µM),relative viability ([2]; first compound 15.81 µM),relative viability ([2]; first compound 50 µM),relative viability ([3]; first compound 0.5 µM),relative viability ([3]; first compound 1.581 µM),relative viability ([3]; first compound 15.81 µM),relative viability ([3]; first compound 50 µM),relative viability ([4]; first compound 0.5 µM),relative viability ([4]; first compound 1.581 µM),relative viability ([4]; first compound 15.81 µM),relative viability ([4]; first compound 50 µM),relative viability ([1]; first compound 5 µM),relative viability ([2]; first compound 5 µM),relative viability ([3]; first compound 5 µM),relative viability ([4]; first compound 5 µM)
HCC-366,0.354,0.319,0.234,0.21,0.357,0.322,0.357,0.354,1.08,0.806,1.02,1.03,0.622,0.547,0.478,0.437,,,,
HCC-827,0.566,0.58,0.448,0.513,0.539,0.46,0.431,0.411,1.02,0.991,1,0.994,0.932,0.955,0.902,0.87,0.72,0.543,1.06,0.889
HOP-62,0.39,0.309,0.337,0.301,0.469,0.455,0.465,0.473,0.955,0.989,1.1,0.707,0.952,0.78,0.835,0.855,0.334,0.44,1.11,0.83
IA-LM,,,,,,,,,0.747,0.718,0.666,0.105,0.556,0.288,0.463,0.201,,,0.802,0.634
LC-2-ad,0.847,0.76,0.908,0.886,0.438,0.404,0.49,0.47,0.464,0.389,0.374,0.41,0.795,0.831,0.769,0.839,0.835,0.447,0.407,0.794
LCLC-97TM1,0.182,0.155,0.128,0.156,0.211,0.216,0.211,0.272,,,0.178,0.307,,,0.23,0.146,0.168,0.225,0.43,0.213
LCLC-103H,0.68,0.64,0.622,0.626,0.447,0.36,0.449,0.49,,,,,0.914,0.978,1.06,1.04,0.674,0.455,,1.12
LK-2,0.655,0.727,0.664,1.04,0.765,0.652,0.683,0.506,0.884,0.838,0.829,1.05,0.69,0.449,0.537,0.602,1.27,0.85,0.874,0.774
LOU-NH91,0.816,0.427,0.718,0.803,0.51,0.468,0.507,0.46,0.733,0.743,0.571,0.764,1,0.928,0.817,1,0.638,0.493,0.577,0.804
LU99A,0.551,0.485,0.441,0.35,0.403,0.375,0.383,0.344,0.788,0.746,0.814,0.633,0.515,0.53,0.404,0.457,,,0.852,0.565
NCI-H358,0.145,,0.118,0.131,0.139,,0.104,0.138,,,,,0.682,0.513,0.717,0.857,0.157,0.154,,0.746
NCI-H522,0.817,0.6,0.75,0.7,1.22,0.953,0.976,0.622,,,,,,,,,,,,
NCI-H596,0.797,0.759,0.725,0.771,,,,,1.02,0.955,0.846,0.977,1,1.08,0.938,1.02,0.639,,1.1,1.07
NCI-H650,0.949,0.871,0.771,0.745,0.309,0.283,0.255,0.239,,,,,0.733,0.672,0.723,0.592,,,,0.537
NCI-H661,0.583,0.582,0.462,0.418,0.41,0.38,0.409,0.361,,,,,0.549,0.565,0.425,0.36,0.5,0.388,,0.608
NCI-H1299,,,,,,,,,1.08,0.875,1.04,0.971,0.979,0.881,0.962,0.988,,,0.955,0.813
NCI-H1563,,,,,,,,,,,,,1.15,1.2,1.18,1.24,,,,1.22
NCI-H1648,0.467,,,0.429,0.293,,,0.3,,,,,,,,,0.643,0.358,,
NCI-H1650,0.678,0.56,0.646,0.419,0.34,0.287,0.371,0.283,1.07,0.916,0.995,0.565,,,,,0.608,0.353,1.33,
NCI-H1703,,,,,,,,,0.944,0.963,1.08,1.25,0.636,0.276,0.364,0.761,,,0.776,0.336
NCI-H2170,0.852,0.882,0.872,0.829,0.372,0.393,0.311,0.378,0.585,0.547,0.44,0.48,,,,,0.958,0.392,0.678,
NCI-H2342,0.819,0.752,0.917,0.946,0.646,0.48,0.507,0.678,,,,,,,,,0.866,0.596,,
SW 900,0.548,0.691,0.785,0.83,0.575,0.496,0.517,0.436,,,,,,,,,0.877,0.546,,
